Test results: patent US20210177828A1, “TAM FAMILY KINASE /AND CSF1R KINASE INHIBITOR AND USE THEREOF” (Nanjing Transthera Biosciences Co., Ltd., priority 2018, published 2021)

Experiments:
Tyro-3 (h) = molecular target: T1, Tyro-3 (h) (Homo sapiens, UniProt Q06418); experiment: Enzymatic activity assay, Tyro-3 (h), [γ-33P]-ATP filter assay; type: biochemical; settings: 10 μM ATP, 40 min room temperature; read-out: Inhibitory activity IC50 Tyro-3(h)
T1 sequence (Q06418 41-890): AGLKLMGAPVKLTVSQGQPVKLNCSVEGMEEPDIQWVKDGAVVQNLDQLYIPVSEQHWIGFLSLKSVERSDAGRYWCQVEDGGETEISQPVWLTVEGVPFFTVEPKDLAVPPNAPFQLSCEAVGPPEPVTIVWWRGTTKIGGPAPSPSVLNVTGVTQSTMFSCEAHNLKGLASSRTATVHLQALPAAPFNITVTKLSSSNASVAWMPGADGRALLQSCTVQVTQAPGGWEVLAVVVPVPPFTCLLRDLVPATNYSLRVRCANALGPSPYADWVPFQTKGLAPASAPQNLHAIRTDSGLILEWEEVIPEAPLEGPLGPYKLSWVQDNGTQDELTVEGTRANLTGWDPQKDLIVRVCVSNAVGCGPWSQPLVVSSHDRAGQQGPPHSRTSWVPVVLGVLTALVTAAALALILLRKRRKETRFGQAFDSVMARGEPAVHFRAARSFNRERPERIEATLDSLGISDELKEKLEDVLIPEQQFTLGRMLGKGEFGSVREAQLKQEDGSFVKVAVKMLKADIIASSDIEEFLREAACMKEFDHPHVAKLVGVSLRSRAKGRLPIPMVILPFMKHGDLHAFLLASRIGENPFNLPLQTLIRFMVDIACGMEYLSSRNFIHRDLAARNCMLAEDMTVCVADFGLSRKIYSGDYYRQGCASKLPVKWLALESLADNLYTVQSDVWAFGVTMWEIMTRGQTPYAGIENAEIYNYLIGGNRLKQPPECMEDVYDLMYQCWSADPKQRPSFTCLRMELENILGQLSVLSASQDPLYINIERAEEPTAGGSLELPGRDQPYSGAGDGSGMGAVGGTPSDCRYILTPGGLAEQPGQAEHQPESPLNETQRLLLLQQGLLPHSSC
Experimental: (§1) Compounds were each dissolved in 100% DMSO to prepare stock solutions with a maximum concentration of 500 μM.
(§2) Compound working solutions (50×) were prepared by diluting a compound stock solution to a final concentration of 500, 150, 50, 15, 5, 1.5, 0.5, 0.15 and 0.05 μM.
An enzyme solution with a final concentration of 38 nM was prepared by dissolving Tyro3 (h) enzyme in a mixture of 8 mM MOPS (pH 7.0), 0.2 mM EDTA, 1 mM MnCl2 and 250 μM KVEKIGEGTYGVVYK. A Mg/ATP mixture of 10 mM magnesium acetate and 10 μM [γ-^33P]-ATP was used to activate the enzymatic reaction.
(§3) A compound working solution was added to a 384-well plate, with final concentrations of 10,000, 3,000, 1,000, 300, 100, 30, 10, 3 and 1 nM, and then different enzymatic reaction solutions prepared according to the above conditions were added. The reaction solutions were incubated at room temperature for 40 min, and then 0.5% phosphoric acid solutions were added to terminate the reaction. 10 μL of the reaction solution was added dropwise to P30 filter paper, washed 4 times with a 0.425% phosphoric acid solution and once with methanol, and then placed in a scintillation counter for detection. Gray analysis was performed on the results with Image J software, and IC50 values were calculated with GraphPad 5.0 software.

CSF1R (h) = CSF1R (h) (Homo sapiens, UniProt P07333); experiment: Enzymatic activity assay, CSF1R (h), [γ-33P]-ATP filter assay; type: biochemical; settings: 10 μM ATP, 40 min room temperature; read-out: Inhibitory activity IC50 CSF1R(h)
Experimental: as §1, §2
An enzyme solution with a final concentration of 64 nM was prepared by dissolving CSF1R enzyme in a mixture of 8 mM MOPS (pH 7.0), 0.2 mM EDTA and 250 μM KKSRGDYMTMQIG. A Mg/ATP mixture of 10 mM magnesium acetate and 10 μM [γ-^33P]-ATP was used to activate the enzymatic reaction.
as §3

H1299 cell pMer = molecular target: T2, H1299 cell pMer (Homo sapiens, UniProt Q12866); experiment: Inhibitory activity on cell pMer, H1299 cells, Human Mer Mab stimulation, Western Blot; type: cell-based; settings: Human Mer Mab 200 ng/mL
T2 construct: endogenous in cells; host or cells: H1299
T2 sequence (Q12866 21-999): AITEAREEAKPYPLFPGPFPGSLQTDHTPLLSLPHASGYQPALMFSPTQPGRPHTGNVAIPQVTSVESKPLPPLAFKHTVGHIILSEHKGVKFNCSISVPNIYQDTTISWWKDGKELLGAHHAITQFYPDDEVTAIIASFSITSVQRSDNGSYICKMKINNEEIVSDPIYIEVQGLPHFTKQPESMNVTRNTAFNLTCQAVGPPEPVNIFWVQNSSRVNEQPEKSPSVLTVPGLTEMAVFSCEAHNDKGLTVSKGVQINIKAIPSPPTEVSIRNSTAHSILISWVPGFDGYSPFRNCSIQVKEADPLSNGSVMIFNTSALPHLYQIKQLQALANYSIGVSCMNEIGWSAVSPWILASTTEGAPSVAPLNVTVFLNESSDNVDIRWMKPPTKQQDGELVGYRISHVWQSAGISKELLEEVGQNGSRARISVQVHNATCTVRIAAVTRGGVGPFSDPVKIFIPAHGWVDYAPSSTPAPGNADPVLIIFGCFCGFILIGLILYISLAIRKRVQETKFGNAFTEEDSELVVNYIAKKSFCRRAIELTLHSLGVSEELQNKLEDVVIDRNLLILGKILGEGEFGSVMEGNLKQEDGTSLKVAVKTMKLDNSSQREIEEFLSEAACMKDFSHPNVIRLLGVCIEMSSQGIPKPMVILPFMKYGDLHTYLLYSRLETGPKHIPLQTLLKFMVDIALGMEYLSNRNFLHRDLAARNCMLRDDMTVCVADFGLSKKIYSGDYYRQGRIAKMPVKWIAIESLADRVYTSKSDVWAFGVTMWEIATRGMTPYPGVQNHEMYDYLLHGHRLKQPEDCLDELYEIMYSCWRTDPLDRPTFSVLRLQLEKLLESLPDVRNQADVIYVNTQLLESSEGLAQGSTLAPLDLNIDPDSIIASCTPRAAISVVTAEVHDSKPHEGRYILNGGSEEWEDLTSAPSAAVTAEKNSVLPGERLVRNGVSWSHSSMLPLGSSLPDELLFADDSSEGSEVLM
Experimental: H1299 is anon-small cell lung cancer cell.
H1299 cells were inoculated to a 6-well plate (containing 10% FBS 1640 medium, 5×10^5 cells per well) and adherently cultivated at 37° C., and 5% CO2 for 18 hrs. The cells were starved overnight, and then compound solutions with different concentrations were added. The compounds had final concentrations of 0.35, 1.1, 3.3 and 10 nM. […] There was a medium containing 1‰DMSO in the negative control well. The cells were incubated at 37° C., and 5% CO2 for 60 min, and then Human Mer Mab (R&D, final concentration: 200 ng/mL) was added to each well. The cells were further incubated for 60 min, and then the total protein of the cells was extracted for Western Blot experiment. Gray analysis was performed on the results with Image J software, and IC50 values were calculated with GraphPad 5.0 software. The inhibitory activities of the compounds on cell pMer were detected.

Chain of CSF1R (h) (P07333 20-972): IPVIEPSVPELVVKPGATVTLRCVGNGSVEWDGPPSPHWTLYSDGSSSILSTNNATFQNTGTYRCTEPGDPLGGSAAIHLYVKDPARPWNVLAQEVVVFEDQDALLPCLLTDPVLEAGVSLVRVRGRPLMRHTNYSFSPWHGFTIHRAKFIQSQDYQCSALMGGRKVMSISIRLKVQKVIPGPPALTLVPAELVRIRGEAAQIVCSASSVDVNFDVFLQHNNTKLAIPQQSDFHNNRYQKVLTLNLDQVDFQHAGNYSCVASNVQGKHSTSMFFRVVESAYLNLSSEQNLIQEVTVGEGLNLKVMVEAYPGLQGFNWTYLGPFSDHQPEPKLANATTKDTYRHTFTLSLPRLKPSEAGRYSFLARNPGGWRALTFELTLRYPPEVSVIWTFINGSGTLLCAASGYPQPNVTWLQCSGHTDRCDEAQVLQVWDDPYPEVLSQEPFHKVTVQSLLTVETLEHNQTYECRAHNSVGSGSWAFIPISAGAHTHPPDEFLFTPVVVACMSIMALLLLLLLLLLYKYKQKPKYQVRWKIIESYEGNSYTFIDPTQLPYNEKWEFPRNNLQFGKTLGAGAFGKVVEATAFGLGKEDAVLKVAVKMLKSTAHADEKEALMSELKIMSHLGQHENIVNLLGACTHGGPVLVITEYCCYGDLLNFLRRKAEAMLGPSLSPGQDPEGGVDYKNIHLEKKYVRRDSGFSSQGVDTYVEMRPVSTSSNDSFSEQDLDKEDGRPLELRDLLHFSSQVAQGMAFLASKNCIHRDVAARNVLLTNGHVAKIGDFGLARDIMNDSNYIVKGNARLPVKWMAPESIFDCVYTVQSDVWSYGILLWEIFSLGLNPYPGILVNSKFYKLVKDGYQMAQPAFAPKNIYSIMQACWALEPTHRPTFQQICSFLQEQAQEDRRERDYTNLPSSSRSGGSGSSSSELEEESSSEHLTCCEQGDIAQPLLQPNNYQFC

| SMILES | IC50 (Tyro-3 (h)) [nM] | IC50 (CSF1R (h)) [nM] | IC50 (H1299 cell pMer) [nM] |
| --- | --- | --- | --- |
| COc1cc2nccc(Oc3cnc(NC(=O)c4cn(CC5CCOCC5)cc(-c5ccc(C)cc5)c4=O)nc3)c2cc1OC [Compound 4, N-(5-((6,7-dimethoxyquinolin-4-yl)oxy)pyrimidin-2-yl)-4-oxo-1-((tetrahydro-2H-pyran-4-yl)methyl)-5-(p-tolyl)-1,4-dihydropyridin-3-carboxamide] | 178 | < 200 | 1.1 |
| COc1cc2nccc(Oc3cnc(NC(=O)c4nn(C5CCOCC5)cc(-c5ccc(C)cc5)c4=O)nc3)c2cc1OC [Compound 18, N-(5-((6,7-dimethoxyquinolin-4-yl)oxy)pyrimidin-2-yl)-4-oxo-1-(tetrahydro-2H-pyran-4-yl)-5-(p-tolyl)-1,4-dihydropyridazin-3-carboxamide] | 58 | < 200 | < 1.1 |
| COc1cc2nccc(Oc3cnc(NC(=O)c4cn(C5CCOCC5)cc(-c5ccc(C)cc5)c4=O)nc3)c2cc1OC [Compound 20, N-(5-((6,7-dimethoxyquinolin-4-yl)oxy)pyrimidin-2-yl)-4-oxo-1-(tetrahydro-2H-pyran-4-yl)-5-(p-tolyl)-1,4-dihydropyridin-3-carboxamide] | 84 | < 200 | 3.3 to 10 |
| COc1cc2nccc(Oc3ccc(NC(=O)c4nn(C5CCOCC5)cc(-c5ccc(C)cc5)c4=O)cc3F)c2cc1OC [Compound 28] | 37 | < 200 | 1.1 |
| COc1cc2nccc(Oc3cnc(NC(=O)c4cn(C5CCOCC5)cc(-c5ccc(F)cc5)c4=O)nc3)c2cc1OC [Compound 31, N-(5-((6,7-dimethoxyquinolin-4-yl)oxy)pyrimidin-2-yl)-5-(4-fluorophenyl)-4-oxo-1-(tetrahydro-2H-pyran-4-yl)-1,4-dihydropyridin-3-carboxamide] | 78 | < 200 | 3.3 to 10 |

The next molecules have a lower IC50 (Tyro-3 (h)) than those just listed; values first:

| IC50 (Tyro-3 (h)) [nM] | IC50 (CSF1R (h)) [nM] | IC50 (H1299 cell pMer) [nM] | SMILES |
| --- | --- | --- | --- |
| 13 | < 200 | 1.1 | COc1cc2nccc(Oc3ccc(NC(=O)c4nn(CC5CCOCC5)cc(-c5ccc(C)cc5)c4=O)nc3)c2cc1OC [Compound 2, N-(5-((6,7-dimethoxyquinolin-4-yl)oxy)pyridin-2-yl)-4-oxo-1-((tetrahydro-2H-pyran-4-yl)methyl)-5-(p-tolyl)-1,4-dihydropyridazin-3-carboxamide] |
| 23 | < 200 | 1.1 | COc1cc2nccc(Oc3cnc(NC(=O)c4nn(CC5CCOCC5)cc(-c5ccc(C)cc5)c4=O)nc3)c2cc1OC [Compound 16, N-(5-((6,7-dimethoxyquinolin-4-yl)oxy)pyrimidin-2-yl)-4-oxo-1-((tetrahydro-2H-pyran-4-yl)methyl)-5-(p-tolyl)-1,4-dihydropyridazin-3-carboxamide] |
| 14 | < 200 | < 0.35 | COc1cc2nccc(Oc3ccc(NC(=O)c4nn(C5CCOCC5)cc(-c5ccc(C)cc5)c4=O)nc3)c2cc1OC [Compound 17, N-(5-((6,7-dimethoxyquinolin-4-yl)oxy)pyridin-2-yl)-4-oxo-1-(tetrahydro-2H-pyran-4-yl)-5-(p-tolyl)-1,4-dihydropyridazin-3-carboxamide] |
| 35 | < 200 | 1.1 | COc1cc2nccc(Oc3ccc(NC(=O)c4cc(CC5CCOCC5)cn(-c5ccc(F)cc5)c4=O)nc3)c2cc1OC [Compound 32, N-(5-((6,7-dimethoxyquinolin-4-yl)oxy)pyridin-2-yl)-1-(4-fluorophenyl)-2-oxo-5-((tetrahydro-2H-pyran-4-yl)methy 1)-1,2-dihydropyridin-3-carboxamide] |
